Results published in US11925634B2, “Use of koumine in preparation of medicament for treatment of inflammatory bowel disease” (Fujian Medical University, priority 2019, dated 2024).

Columns and labels:
[1] = tested on: mice with DSS-induced bowel inflammation; experiment: DSS-induced bowel inflammation in C57BL/6 mice (body weight, defecation, colon length, histopathology); type: in vivo; settings: for histopathological scoring: p<0.01 vs model, FIG. 4
Description: Dextran sulfate sodium (DSS) has an anticoagulant effect and, when orally administered to experimental animals, can cause hyperemia, ulcers, submucosal edema in bowel tissue and other pathological manifestations closely similar to those of clinical IBD patients. Models of DSS-induced bowel inflammation can be taken as basic models for studying the pathogenesis of UC and even IBD and evaluating the efficacy of therapeutic medicaments. In this example, therapeutic effects of koumine were evaluated in a C57BL/6 mouse model of DSS-induced bowel inflammation with the animals' body weight, defecation, pathological manifestations of colonic tissue, expression of MPO in colonic tissue and the like as indicators.
1.1. Experimental Animals Six to eight week old healthy male SPF C57BL/6 mice (weighing 18-22 g) were purchased from Shanghai SLAC Laboratory Animal Co., Ltd. (License No. SOCK (Shanghai) 2017-0005). Prior to study start, the mice were acclimated for 7 days until their body weights reached 20±2 g. They were bred under conditions of a 12/12-h light-dark cycle (light on 8:00-20:00), constant temperature (20-26° C.) and constant humidity (40-70%), with food and water provided ad libitum. Experimental operations were conducted in accordance with regulations of international and local committees on care and use of laboratory animals (the same applies below).
(§1) 1.2. Medicaments and Reagents Koumine hydrochloride (C20H22N2O·HCl) (in the form of a powder) was prepared in the School of Pharmacy, Fujian Medical University (Batch No. KM201610, with a purity of 99.99% as determined by high performance liquid chromatography), stored at 4° C. in the dark, and dissolved in normal saline to a desired concentration before use. DSS was purchased from MP Biomedicals, USA and fully dissolved in distilled water to a desired concentration before use. Mesalazine enteric coated tablets were purchased from Heilongjiang Tianhong Pharmaceutical Co., Ltd. A citrate (pH=6.0) antigen retrieval solution, BSA, an anti-myeloperoxidase primary antibody, an HRP-conjugated goat anti-rabbit secondary antibody and a histochemistry kit for DAB staining were purchased from Wuhan Servicebio Technology Co., Ltd. (the same applies below).
(§2) Fifty-one healthy SPF C57BL/6 mice were randomly assigned into a blank control group (n=6), a model group (n=9) and 4 treatment groups (n=9 for each) respectively administered with low (0.67 mg/kg), medium (2 mg/kg) and high (6 mg/kg) doses of koumine, as well as mesalazine (100 mg/kg) as a positive control. A mouse model of DSS-induced bowel inflammation was established by allowing the mice in the model group and the individual treatment groups to have free access to a 2.5% DSS solution in water for 8 days and providing ad libitum access to normal water to the mice in the blank control group. From the day of induction (D0), the mice in the treatment groups received intragastric administration (0.1 mL/10 g) once a day for 9 consecutive days (D0-D8), while those in the control and model groups were given the same volumes of normal saline also by intragastric administration throughout the same period. Body weight measurements were taken and fecal occult blood tests were performed daily. One hour after the last administration (D8), the mice were sacrificed by cervical dislocation under anesthesia. Immediately after that, a bowel segment from the terminal ileum to the anus was removed from each mouse, and a length from the ileocolonic junction to the anus was measured and recorded. Colonic tissue was taken 1 cm away from the anus for histopathological examination, as well as for immunohistochemical detection for the expression of MPO. Additionally, colonic tissue was taken 1-2 cm away from the anus for MPO activity determination.

myeloperoxidase (MPO) [2] = experiment: MPO activity assay in colonic tissue homogenates, OXA model; type: in vivo, BALB/c mice; settings: p<0.01, p<0.001 vs model, FIG. 10
Description: […]

myeloperoxidase (MPO) [3] = experiment: Immunohistochemical detection of MPO expression in colonic tissue, DSS model; type: in vivo, C57BL/6 mice
Description: as §1, §2

[4] = tested on: mice with OXA-induced colitis; experiment: OXA-induced colitis in BALB/c mice (body weight, colon length, histomorphology); type: in vivo
Text: OXA-induced colitis causes lesions primarily in the distal colon and resembles human IBD in terms of histological characteristics and distribution of inflammation, which can be manifested as a decrease in goblet cells.
Six to eight week old healthy male SPF BALB/c mice were purchased from Shanghai SLAC Laboratory Animal Co., Ltd. (License No. SOCK (Shanghai) 2017-0005).
The same koumine hydrochloride and mesalazine as in Example 1 were used. OXA was purchased from Sigma, USA and prepared in the form of a solution before use by fully dissolving it in absolute ethanol preheated to 35° C. When used for an enema, the solution was diluted 1-fold with normal saline to a desired concentration. Absolute ethanol was purchased from Merck, Germany. All the other reagents were the same as in Example 1.
Seventy-four BALB/c mice were randomly assigned into a blank control group (n=6), a vehicle control group (n=10), a model group (n=19) and low-dose (n=10), medium-dose (n=9) and high-dose (n=12) koumine treatment groups and another treatment group (n=8) administered with mesalazine as a positive control. A mouse model of OXA-induced UC was established by sensitizing and then giving enemas to the mice in the model group and the individual treatment groups. Specifically, each of the mice was anesthetized and sensitized by drop-wise applying a 3% solution (150 μL) of OXA in absolute ethanol to a shaved abdominal area (about 1.5 cm×1.5 cm), and received an enema using a 1% solution of OXA in 50% ethanol (100 μL) five days following the sensitization (D0). The mice in the vehicle and blank control groups were treated similarly, except for drop-wise application of 150 μL absolute ethanol and normal saline in the sensitization phase, respectively, and use of 100 μL of 50% ethanol and the same volume of normal saline in the enema phase, respectively. From the day of enema administration (D0), the mice in the treatment groups received intragastric administration (0.1 mL/10 g) once a day for 4 consecutive days (D0-D3). The daily dosage of koumine and the positive control mesalazine to the treatment groups was the same as in Example 1, and the vehicle control group was given the same volumes of 50% ethanol. Bowel inflammation evaluation of the animals was conducted in the same manner using the same indicators as in Example 1.

myeloperoxidase (MPO) [5] = experiment: Immunohistochemical detection of MPO expression in colonic tissue, OXA model; type: in vivo, BALB/c mice
Description: […]

[6] = mesalazine 100 mg/kg intragastric

With `C=CC12CN(C)C3CC14C(=Nc1ccccc14)C1CC2C3CO1` (centres unmarked) [koumine] the defecation and hematochezia ([1]; high dose 6 mg/kg intragastric once a day) was “fewer times of defecation and mitigated hematochezia”, the “gross damage and hyperemia of bowel mucosa” value ([1]; koumine 0.67, 2, 6 mg/kg intragastric once a day) was “ameliorate damage, hyperemia and the like” and the “symptom of weight loss” value ([1]; koumine 0.67, 2, 6 mg/kg intragastric once a day D0-D8, FIG. 1) was “alleviate the symptom of weight loss”. For the same compound, the colon shortening ([1]; koumine 0.67, 2, 6 mg/kg intragastric once a day, FIG. 2) was “dose-dependently reduce colon shortening”, the “microscopic manifestations of HE-stained colonic tissue” value (shortened to “microscopic manifestations”) ([1]; koumine 0.67, 2, 6 mg/kg intragastric, FIG. 3 C-E) was “reduced inflammatory cell infiltration” and the histopathological scoring ([1]; koumine high dose 6 mg/kg intragastric) was “significantly inhibit increases in the sore of the model group”. The “average body weight vs model group” value ([1]; low dose 0.67 mg/kg intragastric once a day, as early as D6 (seventh day of administration), p<0.05, FIG. 1) was “significantly higher than that of those in the model group”, the “colon length vs model group” value ([1]; low dose 0.67 mg/kg intragastric, eighth day of administration, p<0.05, FIG. 2) was “significantly greater than that of the model group” and the defecation and hematochezia ([1]; medium dose 2 mg/kg intragastric once a day) was “fewer times of defecation and mitigated hematochezia”. For the same compound, the “average body weight vs model group” value ([1]; medium dose 2 mg/kg intragastric once a day, from D5 (sixth day of administration), p<0.05 and p<0.01, FIG. 1) was “significantly higher than that of those in the model group”, the “enzymatic activity of MPO in colonic tissue” value (myeloperoxidase (MPO) [2]; koumine at the different doses (0.67, 2, 6 mg/kg) intragastric) was “significantly reduced enzymatic activity per unit weight” and the “expression of MPO in colonic tissue” value (myeloperoxidase (MPO) [3]; high dose 6 mg/kg intragastric, FIG. 5 E) was “lowered the expression of MPO to different extents”. The “expression of MPO in colonic tissue” value (myeloperoxidase (MPO) [3]; low dose 0.67 mg/kg intragastric, FIG. 5 C) was “did not lead to any noticeable decrease in the expression of MPO”, the “expression of MPO in colonic tissue” value (myeloperoxidase (MPO) [3]; medium dose 2 mg/kg intragastric, FIG. 5 D) was “lowered the expression of MPO to different extents” and the “gross manifestations of colonic tissue (hyperemia, redness and swelling)” value (“gross manifestations of colonic tissue” below) ([4]; high dose 6 mg/kg intragastric) was “remarkable relief of most manifestations of colonic tissue”. The “microscopic manifestations” value ([4]; high dose 6 mg/kg intragastric, FIG. 8 E) was “infiltration of only a small number of inflammatory cells”, the body weight loss ([4]; koumine 0.67, 2, 6 mg/kg intragastric once a day D0-D3, FIG. 6) was “alleviate body weight loss of mice with colitis in a dose-dependent manner” and the “positive effect on colon length” value ([4]; koumine 0.67, 2, 6 mg/kg intragastric, FIG. 7) was “dose-dependent”. The “gross manifestations of colonic tissue” value ([4]; low dose 0.67 mg/kg intragastric) was “appeared to not mitigate the manifestations”, the “microscopic manifestations” value ([4]; low dose 0.67 mg/kg intragastric, FIG. 8 C) was “slightly milder symptoms than the symptoms of the model group” and the colon shortening ([4]; low dose 0.67 mg/kg intragastric, p<0.01 vs model, FIG. 7) was “significantly reduce their colon shortening”. The “gross manifestations of colonic tissue” value ([4]; medium dose 2 mg/kg intragastric) was “not seen with severe redness and swelling, hyperemia or other inflammatory manifestations”, the “microscopic manifestations” value ([4]; medium dose 2 mg/kg intragastric, FIG. 8 D) was “infiltration of only a small number of inflammatory cells” and the “expression of MPO in colonic tissue” value (myeloperoxidase (MPO) [5]; koumine at the different doses (0.67, 2, 6 mg/kg) intragastric, FIG. 9 C-E) was “suppressed expression of MPO to varying extents”.
`Nc1ccc(O)c(C(=O)O)c1` [mesalazine, reference compound] was tested, and the “microscopic manifestations” value ([1]; mesalazine 100 mg/kg intragastric, FIG. 3 F) was “obvious improvements over the model group mice”, the histopathological scoring [1, 6] was “significantly inhibit increases in the sore of the model group” and the “enzymatic activity of MPO in colonic tissue” value (myeloperoxidase (MPO) [2]; [6]) was “significantly reduced enzymatic activity per unit weight”. The “expression of MPO in colonic tissue” value (myeloperoxidase (MPO) [3]; mesalazine 100 mg/kg intragastric, FIG. 5 F) was “lowered the expression of MPO to different extents”, the “effect of alleviating body weight loss” value ([4]; mesalazine 100 mg/kg intragastric once a day D0-D3, FIG. 6) was “comparable to that of the medium dose of koumine” and the “positive effect on colon length” value ([4]; mesalazine 100 mg/kg intragastric, FIG. 7) was “comparable to that of koumine at 6 mg/kg”. The “microscopic manifestations” value ([4]; mesalazine 100 mg/kg intragastric, FIG. 8 F) was “infiltration of only a small number of inflammatory cells” and the “expression of MPO in colonic tissue” value (myeloperoxidase (MPO) [5]; mesalazine 100 mg/kg intragastric, FIG. 9 F) was “suppressed expression of MPO to varying extents”.
